Where two headings read alike, the source gives them in different places.
How the values were obtained:
[1] = system: HIV-1 IIIB; format: cell-based
[2] = system: HIV-1; details: cited from earlier work
[3] = molecular target: NTD of capsid; details: affinity for the NTD; cited from earlier work
[4] = system: HIV-1 IIIB; test: Antiviral activity; format: cell-based; details: Table 1; HIV-1 IIIB in MT-2 cells; 50% reduction in p24 production; ± SD

Molecule: c1cc(CN2CCCNCCNCCCNCC2)ccc1CN1CCCNCCNCCCNCC1 [AMD3100]
- infectivity of virions released in the supernatant ([1]; producer MT-2 cells treated with 1 μg/mL, positive control): no viral infectivity

Molecule: Cc1ccc(NC(=O)NCCSCc2ccc(CN(C)C)o2)cc1Cl [CAP-1]
- HIV-1 inhibition in viral infectivity assays [2]: dose-dependent HIV-1 inhibition
- infectivity of particles produced after treatment [2]: poorly infectious
- inhibition of virus production [2]: virtually no inhibition of virus production
- Kd [3]: ~800 µM

Molecule: Cc1ccc2[nH]c(=O)c(CN(Cc3ccco3)C(=O)c3ccc(Cl)cc3)cc2c1 [Compound 6]
- percentage of infectivity with respect to the untreated control ([1]; producer MT-2 cells treated with 2.5 μM, p24-normalized, TCID50): about 60%
- infectivity of virions released in the supernatant ([1]; producer MT-2 cells treated with 5 μM): no viral infectivity

Molecule: N-Furan-2-ylmethyl-6-methoxy-N-(6-methyl-2-oxo-1,2-dihydro-quinolin-3-ylmethyl)-nicotinamide [Compound 19]
- IC50 [4]: > 24.8 µM
